Assay results published in patent US20030083469A1, “Allosteric control of nuclear hormone receptors” (The Salk Institute for Biological Studies, priority 1995, published 2003).

What was measured:
[1] = target: T1, GAL-T3R + RXR LBD (Homo sapiens, UniProt P19793); test: Transient transfection of GAL-T3R chimera with RXR LBD; type: cell-based; details: 100 nM LG69
T1 construct: or the human RXRα LBD (Glu 203 -Thr 462); expressed in transfected cells; host or cells: CV-1
T1 sequence (P19793 203-462): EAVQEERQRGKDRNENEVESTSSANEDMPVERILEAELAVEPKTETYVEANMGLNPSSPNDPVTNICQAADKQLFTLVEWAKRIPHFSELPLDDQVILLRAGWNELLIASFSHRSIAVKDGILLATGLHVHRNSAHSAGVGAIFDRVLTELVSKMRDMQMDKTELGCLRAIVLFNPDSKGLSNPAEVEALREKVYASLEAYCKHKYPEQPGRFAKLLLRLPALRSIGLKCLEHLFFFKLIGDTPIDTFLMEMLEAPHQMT
T1 sequence (P10828 178-461 partner): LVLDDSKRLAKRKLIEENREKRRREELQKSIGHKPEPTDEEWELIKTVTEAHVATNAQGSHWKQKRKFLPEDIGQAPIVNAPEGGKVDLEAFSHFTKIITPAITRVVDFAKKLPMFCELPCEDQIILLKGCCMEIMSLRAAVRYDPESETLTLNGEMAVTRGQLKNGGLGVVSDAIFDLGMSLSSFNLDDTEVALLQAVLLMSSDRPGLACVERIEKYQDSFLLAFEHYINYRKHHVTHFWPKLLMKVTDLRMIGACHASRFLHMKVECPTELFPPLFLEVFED
Experimental: (§1) CV-1 cells were grown in Dulbecco's Modified Eagle's medium supplemented with 10% resin-charcoal stripped (Samuels et al., Endocrinology 105:80-85 (1979)) fetal bovine serum, 50 U/ml penicillin G and 50 μg/ml streptomycin sulfate (DMEM-FBS) at 37° C. in 5% CO2. One day prior to transfection, cells were plated to 50-80% confluence using phenol-red free DMEM-FBS. Cells were transfected by lipofection using N-{2-(2,3)-dioleoyloxy)propyl-N,N,N-trimethyl ammonium methyl sulfate} according to the manufacturer's instructions (DOTAP, Boehringer Mannheim). […] Cells were harvested and assayed for luciferase and β-galactosidase activity. All points were performed in triplicate in each experiment and varied by less than 10%. Each experiment was repeated three or more times with similar results.
(§2) Since RXR serves as a silent partner in the T3R and RAR pathways, it was next investigated whether RXR could serve as an active component in other complexes. To search for such complexes, the LBD of a number of nuclear receptors were fused to the GAL4 DBD, and tested to determine whether the RXR LBD could confer LG69 responsiveness upon these GAL-LBD chimeras. […] Normalized luciferase activity was determined and plotted as fold-activation relative to untreated cells.

[2] = target: T2, GAL-Nurrl + RXR-LBD (Homo sapiens, UniProt P19793); test: Transient transfection of GAL-Nurrl chimera with RXR LBD; type: cell-based, mouse Nurrl, human RXRα; details: RXR-LBD co-expressed with GAL-Nurrl; 100 nM
T2 construct: or the human RXRα LBD (Glu 203 -Thr 462); expressed in transfected cells; host or cells: CV-1
T2 sequence (Q06219 318-598 partner limits assumed, one chain of several): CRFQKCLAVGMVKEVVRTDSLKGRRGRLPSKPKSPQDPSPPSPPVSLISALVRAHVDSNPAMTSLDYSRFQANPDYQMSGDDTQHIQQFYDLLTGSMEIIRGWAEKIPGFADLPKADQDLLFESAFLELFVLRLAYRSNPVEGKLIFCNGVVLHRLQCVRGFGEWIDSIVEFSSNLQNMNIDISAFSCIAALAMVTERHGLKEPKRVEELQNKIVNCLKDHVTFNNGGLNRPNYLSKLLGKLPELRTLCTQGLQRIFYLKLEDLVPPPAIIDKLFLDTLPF
Experimental: as §1, §2

[3] = target: T3, GAL-RXR + RAR LBD (Homo sapiens, UniProt P10276+P19793); test: Transient transfection analysis of GAL-RXR LBD in the presence of RAR LBD; type: cell-based
T3 construct: human RXRα LBD (Glu 203 - Thr 462); HRARα LBD (Glu 156 - PRO 462); expressed in transfected cells; host or cells: CV-1
T3 sequence (P19793 203-462): T1 sequence (P19793 203-462)
T3 sequence (P10276 156-462): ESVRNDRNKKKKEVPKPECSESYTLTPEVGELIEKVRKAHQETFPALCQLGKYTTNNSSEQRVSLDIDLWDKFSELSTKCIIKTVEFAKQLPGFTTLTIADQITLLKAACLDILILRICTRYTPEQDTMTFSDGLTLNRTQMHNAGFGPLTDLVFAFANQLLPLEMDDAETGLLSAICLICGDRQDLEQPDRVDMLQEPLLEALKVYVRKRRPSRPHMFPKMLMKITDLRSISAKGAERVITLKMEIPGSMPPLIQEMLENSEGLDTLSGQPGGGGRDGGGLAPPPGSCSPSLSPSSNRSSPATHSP
Experimental: CV-1 cells were grown in Dulbecco's Modified Eagle's medium supplemented with 10% resin-charcoal stripped (Samuels et al., Endocrinology 105:80-85 (1979)) fetal bovine serum, 50 U/ml penicillin G and 50 μg/ml streptomycin sulfate (DMEM-FBS) at 37° C. in 5% CO2. One day prior to transfection, cells were plated to 50-80% confluence using phenol-red free DMEM-FBS. Cells were transfected by lipofection using N-{2-(2,3)-dioleoyloxy)propyl-N,N,N-trimethyl ammonium methyl sulfate} according to the manufacturer's instructions (DOTAP, Boehringer Mannheim). […]. All points were performed in triplicate in each experiment and varied by less than 10%. Each experiment was repeated three or more times with similar results.
Thus, a chimeric protein was constructed containing the yeast GAL4 DBD linked to the RXR LBD (GAL-RXR). The ability of this RXR-chimera to respond to LG69 was initially examined in the presence of truncated receptors containing the LBDs of T3R or RAR. Thus, transient transfection analysis of GAL-RXR LBD was carried out in the presence of T3R, RAR or VDR LBDs. Reporter constructs contained 4 copies of the UASG cloned upstream of the TK-LUC reporter. […] Normalized luciferase activity was determined and plotted as reporter activity (see FIG. 3).
[…]. Normalized luciferase activity was determined and plotted as fold-activation relative to untreated cells.

Structure (SMILES): CC=C(c1ccc(C(=O)O)cc1)c1cc2c(cc1C)C(C)(C)CCC2(C)C [LG69, 4-{1-(3,5,5,8,8-pentamethyl-5,6,7,8-tetrahydro-2-napthalenyl)-1-propenyl}benzoic acid]
- LG69 responsiveness [1]: not seen
- responsiveness to ligand [2]: strong responsiveness
- transcriptional activity with Am580+LG69 over that seen with AM580 alone ([3]; GAL-RXR + RAR LBD, 50 nM AM580+100 nM LG69): increased transcriptional activity
- fold-responsiveness of GAL-RXR to LG69 ([3]; unliganded RAR LBD present, 100 nM LG69): strongly suppressed
